The nature of the data set: solvent given as SMILES.

Take `COc1ccc(C2=C3C(/C=C/c4cc(OC)c(OC)c(OC)c4)=C(C=O)C(/C=C/c4cc(OC)c(OC)c(OC)c4)=[N+]3[B-](F)(F)n3c(/C=C/c4cc(OC)c(OC)c(OC)c4)c(C=O)c(C=Cc4cc(OC)c(OC)c(OC)c4)c32)cc1`: the absorption maximum (in ClCCl) is 688 nm.

For the compound `COc1ccc(-c2cc3c(s2)c(C(C)=O)cc(=O)n3Cc2ccccc2)cc1`, the absorption maximum reads like this: (in CC#N) 420 nm; (in ClCCl) 426 nm.

As to `C/C=C/c1ccc(OC)cc1`, the absorption maximum (in CCCCCC) is on record as 305 nm.

With `Cc1ccc(C2=C3C=CC(/C=C/c4ccccc4)=[N+]3[B-](F)(F)n3c(/C=C/c4ccccc4)ccc32)cc1`, the absorption maximum is recorded as 630 nm (in C1CCCCC1); 632 nm (in C1CCOC1); 633 nm (in C1COCCO1); 626 nm (in CO); 635 nm (in ClC(Cl)Cl).

For the compound `CCc1ccc(-c2nc(-c3ccc(-n4c5ccccc5c5ccccc54)cc3)cc(-c3ccc(-n4c5ccccc5c5ccccc54)cc3)n2)cc1`, the absorption maximum is reported as 343 nm (in C1CCOC1), 344 nm (in CN(C)C=O), 354 nm (in Cc1ccccc1) and 344 nm (in ClC(Cl)Cl).

For the compound `CCN(CC)c1ccc2cc(-c3nc4cc(C(=O)Nc5ccc(C)cc5[N+](=O)[O-])ccc4o3)c(=O)oc2c1`, for the setting “in ClCCl”, the absorption maximum came to 445 nm.

`C#CCOc1ccc(C2=[N+]3C(=Nc4c(-c5ccccc5)cc(-c5ccc(O)cc5)n4[B-]3(F)F)C(c3ccccc3)=C2)cc1`: the absorption maximum is given as 688 nm (in CO), 685 nm (in Cc1ccccc1) and 680 nm (in ClC(Cl)Cl).

Compound `CCCN1c2ccccc2Sc2cc(/C=C\c3cc(=O)oc4cc(C)c(Cl)cc34)ccc21` showed an absorption maximum (in ClC(Cl)Cl) of 432 nm.

`COc1cc2c3cc(OC)c(OC)cc3c3cc4c(C)cc(=O)oc4cc3c2cc1OC`: the absorption maximum runs as follows: (in C1CCOC1) 366 nm; (in CO) 364 nm; (in CS(C)=O) 370 nm; (in Cc1ccccc1) 366 nm; (in ClC(Cl)Cl) 368 nm.

Consider `CCCCC(CC)CN1C(=O)c2cccc3c(C#Cc4ccc(N(c5ccccc5)c5ccccc5)cc4)ccc(c23)C1=O` (stereo unspecified), for which the absorption maximum is, setting by setting: (in C1CCCCC1) 422 nm; (in C1CCOC1) 434 nm; (in CC#N) 433 nm; (in Cc1ccccc1) 438 nm; (in ClC(Cl)Cl) 450 nm.

With `C[Si]1(C)c2cc(-c3ccc(N(c4ccccc4)c4ccccc4)cc3)ccc2C=Cc2ccc(-c3ccc(N(c4ccccc4)c4ccccc4)cc3)cc21`, under “in ClCCl”, the absorption maximum is given as 435 nm.

`C(=C\c1ccc(N(c2ccccc2)c2ccccc2)cc1)/c1ccccc1`: the absorption maximum is, setting by setting: (in CC#N) 362 nm; (in CCCCCC) 362 nm.

Turning to `CC(C)(C)c1ccc(-c2nc(-c3ccc(C(C)(C)C)cc3)nc(-c3cc(C#N)c(-n4c5ccccc5c5c6oc7ccccc7c6ccc54)c(C#N)c3)n2)cc1`, for the setting “in C1CCOC1”, the absorption maximum amounted to 397.48 nm.

`CN1CCCc2cc(C3=Cc4cccc[n+]4[B-](F)(F)O3)ccc21` came in with an absorption maximum (in ClC(Cl)Cl) of 438 nm.

Turning to `F[B-]1(F)n2c(c(-c3ccccc3)c(-c3ccccc3)c2-c2ccccc2)C=C2C(c3ccccc3)=C(c3ccccc3)C(c3ccccc3)=[N+]21`, for the setting “in C1CCOC1”, the absorption maximum is on record as 576 nm.

`CC1(C)c2ccccc2N(c2ccc(-c3cc(C#N)c(C#N)cc3-c3ccc(N4c5ccccc5C(C)(C)c5ccccc54)cc3)cc2)c2ccccc21` had an absorption maximum (in Cc1ccccc1) of 384 nm.

On to `CC1(C)c2ccccc2N(c2ccc(-c3nnc(-c4ccccc4O)o3)cc2)c2ccccc21`, for which the absorption maximum is, setting by setting: (in C1CCOC1) 361 nm; (in C1COCCO1) 363 nm; (in CC#N) 358 nm; (in CC(C)=O) 361 nm; (in CCCCCC) 362 nm; (in CCO) 361 nm. The absorption maximum by setting is: (in CCOC(C)=O) 360 nm; (in CN(C)C=O) 360 nm; (in CS(C)=O) 364 nm; (in Cc1ccccc1) 362 nm; (in ClC(Cl)Cl) 365 nm; (in ClCCCl) 368 nm. The absorption maximum was determined as 366 nm (in ClCCl) and 367 nm (in Clc1ccccc1).

Take `F[B-]1(F)n2c(ccc2-c2cccs2)C(C(F)(F)F)=C2C=CC(c3cccs3)=[N+]21`: the absorption maximum (in CCCCCC) is 665 nm.

`Cc1cc2c(o1)=CC1=C(C(F)(F)F)c3cc4oc(C)cc4n3[B-](F)(F)[N+]=21` returned an absorption maximum (in ClC(Cl)Cl) of 613 nm.

Take `COc1ccc(-n2c3c4ccccc4nc(-c4ccc(C#N)cc4)c3c3c2c2c(-c4ccc(C#N)cc4)nc4ccccc4c2n3-c2ccc(OC)cc2)cc1`: the absorption maximum (in ClC(Cl)Cl) is 315 nm.

For the compound `COc1ccc(C2=N/C(=C\c3ccccc3)C(=O)N2)cc1OC`, the absorption maximum (in C1COCCO1) is recorded as 390 nm.

Compound `c1ccc(-c2nc3c4ccccc4c4ccccc4c3n2-c2ccccc2)cc1` registered an absorption maximum (in C1CCOC1) of 362 nm.

Compound `CCOC(=O)c1c2c3c(ccc(F)c3c3cc4c(cc13)[Si](C)(C)O[Si]4(C)C)N(C)C2=O` yielded an absorption maximum (in CC#N) of 380 nm.

Take `CCn1c2ccccc2c2cc(C#Cc3cc(C#Cc4ccc5c(c4)c4ccccc4n5CC)nc(S(C)(=O)=O)n3)ccc21`: the absorption maximum was determined as 408 nm (in C1CCOC1); 405 nm (in CCOC(C)=O); 415 nm (in CN(C)C=O); 411 nm (in Cc1ccccc1); 417 nm (in ClCCl).

In turn, `O=[N+]([O-])c1ccc([N+]2=CC3=C(O[B-]2(F)F)c2ccccc2SC3)cc1` displayed an absorption maximum (in ClCCl) of 440 nm.

`O=C1c2ccc(N(c3ccc(-c4ccccc4)cc3)c3ccc(-c4ccccc4)cc3)cc2C(=O)c2ccc(N(c3ccc(-c4ccccc4)cc3)c3ccc(-c4ccccc4)cc3)cc21` showed an absorption maximum (in Cc1ccccc1) of 464 nm.

On to `N#Cc1ccc(-c2cc3c(ccc4sccc43)s2)cc1`, for which, for the setting “in ClCCl”, the absorption maximum worked out at 346 nm.

Take `c1ccc(N(c2ccccc2)c2ccc(-c3ncc(-c4cccs4)s3)cc2)cc1`: under “in CO”, the absorption maximum is on record as 387 nm.

In the case of `O=c1cc[nH]c(=O)[nH]1`, where the note is “in CC#N”, the absorption maximum was 256 nm.

On to `CCCCCCn1c2cc(/C=C/c3ccccc3)ccc2c2ccc(/C=C/c3ccccc3)cc21`, for which, under “in ClC(Cl)Cl”, the absorption maximum came out at 390.62 nm.

`Clc1cnc2nn3ccccc3c2c1`: the absorption maximum (in C1CCOC1) worked out at 373 nm.

For the compound `Cc1cc(C)c2nc3[nH]c(=O)[nH]c(=O)c3nc2c1`, where the note is “in CC#N”, the absorption maximum is 388 nm.

As for `CCN(CC)c1ccc(/C=N/c2cc3nc4ccccc4nc3cc2/N=C/c2ccc(N(CC)CC)cc2O)c(O)c1`, the absorption maximum (in CC#N) is 451 nm, the absorption maximum (in CN(C)C=O) worked out at 488 nm and the absorption maximum (in ClCCl) was 476 nm.

As to `c1ccc(N(c2ccccc2)c2ccc(-c3ncc(-c4cnc(-c5ccc(N(c6ccccc6)c6ccccc6)cc5)s4)s3)cc2)cc1`, the absorption maximum (in CO) was found to be 422 nm.

With `Cc1ccc(-c2c3nc(c(-c4ccc(C)cc4)c4ccc([nH]4)c(-c4ccc(OC(=O)C(C)c5ccc(CC(C)C)cc5)cc4)c4nc(c(-c5ccc(C)cc5)c5ccc2[nH]5)C=C4)C=C3)cc1` (stereo unspecified), the absorption maximum (in ClCCl) came to 649 nm.

As to `CCN(CC)c1ccc(/N=N/c2nc3ccc(OC)cc3s2)cc1`, the absorption maximum (in CC#N) is 515 nm and the absorption maximum (in ClCCl) amounted to 517 nm.

For the compound `CC(C)c1cccc(C(C)C)c1N1C(=O)c2cccc3c(Oc4ccc(C(C)(C)c5ccccc5)cc4)ccc(c23)C1=O`, the absorption maximum (in ClCCl) is listed as 365 nm.

These data come from the Deep4Chem optical property database.
